Test results as given in US4554367A, “Phosphonium organohalogenostannates-IV” (priority 1982, dated 1985).

Experiments:
[1] = system: Venturia inaequalis; assay: Residual protective action against Venturia inaequalis on apple shoots; assay type: in vivo; settings: 0.02% of active substance, 15 days after infection
Protocol: Residual protective action against Venturia inaequalis on apple shoots
Apple cuttings with fresh shoots 10-20 cm long were sprayed with a spray liquor (0.02% of active substance) prepared from a wettable powder of the active substance. After 24 hours, the treated plants were infected with a conidia suspension of the fungus. The plants were then incubated at 90-100% relative atmospheric humidity for 5 days and were placed in a greenhouse at 20°-24° C. for 10 further days. The scab attack was evaluated 15 days after the infection. Compounds nos. 18, 5 and 9 and others inhibited the disease attack to less than 10%.

[2] = system: Proteus vulgaris; assay: MIC against bacteria, strain A; assay type: cell-based; settings: 24 h, 30° C., tested at 100 or 300 mg/liter
Protocol: (§1) Determination of the minimum inhibitory concentration (MIC) against bacteria
(§2) ONCs (cultures incubated overnight) of the bacteria strains A-F grown in Caso-Peptone broth (Merck) are each diluted […] in saline. An amount of the suspension is introduced into Caso-Peptone broth such that the bacteria are again diluted 1:1,000. The cultures are treated with 100 or 300 mg/liter of the phosphonium stannates shown in Table B. After incubation at 30° C. in a shaking water bath for 24 hours, the cultures are evaluated on the basis of cloudiness. The MIC is the concentration at which the broth is not clouded by bacterial growth.

[3] = system: Pseudomonas aeruginosa; assay: MIC against bacteria, strain B; assay type: cell-based; settings: 24 h, 30° C., tested at 100 or 300 mg/liter
Protocol: as §1, §2

[4] = system: Enterobacter aerogenes; assay: MIC against bacteria, strain C; assay type: cell-based; settings: 24 h, 30° C., tested at 100 or 300 mg/liter
Protocol: as §1, §2

[5] = system: Serratia marcenscens; assay: MIC against bacteria, strain D; assay type: cell-based; settings: 24 h, 30° C., tested at 100 or 300 mg/liter
Protocol: as §1, §2

[6] = system: Alkaligenes denitrificans; assay: MIC against bacteria, strain E; assay type: cell-based; settings: 24 h, 30° C., tested at 100 or 300 mg/liter
Protocol: as §1, §2

[7] = system: Bacillus subtilis; assay: MIC against bacteria, strain F; assay type: cell-based; settings: 24 h, 30° C., tested at 100 or 300 mg/liter
Protocol: as §1, §2

[8] = system: Aspergillus niger; assay: MIC against fungi, strain G; assay type: cell-based; settings: malt extract agar
Protocol: (§3) Determination of the minimum inhibitory concentration (MIC) against fungi
(§4) The investigation is carried out in malt extract agar (Merck) by the known agar incorporation test using the fungi

[9] = system: Aspergillus phoenicia; assay: MIC against fungi, strain H; assay type: cell-based; settings: malt extract agar
Protocol: as §3, §4
(§5) For inhibition, the various compounds are in each case added in amounts such that concentrations of […] results in the agar. The concentrations (mg/liter) required for inhibition of the growth of the fungi (starting from traces of fungi dripped on) are illustrated in Table D.

[10] = system: Penicillium funiculosum; assay: MIC against fungi, strain I; assay type: cell-based; settings: malt extract agar
Protocol: as §3, §4
I Penicillium funiculosum
as §5

[11] = system: Alternaria alternata; assay: MIC against fungi, strain J; assay type: cell-based; settings: malt extract agar
Protocol: as §3, §4, §5

[12] = system: Cladosporium cladosporioides; assay: MIC against fungi, strain K; assay type: cell-based; settings: malt extract agar
Protocol: as §3, §4
K Cladosporium cladosporioides
as §5

[13] = system: Candida albicans; assay: MIC against fungi, strain L; assay type: cell-based; settings: malt extract agar
Protocol: as §3, §4, §5

[14] = system: Endomyces geotrichum; assay: MIC against fungi, strain M; assay type: cell-based; settings: malt extract agar
Protocol: as §3, §4, §5

[15] = system: Aureobasidium pullulans; assay: MIC against fungi, strain N; assay type: cell-based; settings: malt extract agar
Protocol: as §3, §4
N Aureobasidium pullulans
as §5

[16] = system: Chaetomium globosum; assay: MIC against fungi, strain O; assay type: cell-based; settings: malt extract agar
Protocol: as §3, §4, §5

[17] = system: Chlorella vulgaris; assay: Action against Chlorella vulgaris; assay type: cell-based; parameters: key to Growth in the medium: 1: no growth in the medium, 3 ppm have a growthinhibiting action; key to Growth on the agar: 2: no growth on the agar, 3 ppm have destroyed the algae within 6 hours; settings: 3 mg/liter
Protocol: Determination of the action against algae
A Chlorella vulgaris culture grown for 14 days in algae nutrient medium is diluted 1:200 in algae nutrient medium. Each of the compounds listed in Table E is then added such that a concentration of 3 mg/liter results. After incubation for 6 hours, 10 μl are in each case withdrawn and dripped onto algae agar in order to determine the destructive action.

[18] = system: Enteromorpha intestinalis; assay: Action against Enteromorpha intestinalis; assay type: cell-based
Protocol: (b) Enteromorpha intestinalis
The action against the green alga Enteromorpha most important in sea water fouling is investigated in sterile-filtered sea water containing Erd-Schreiber solution. The solution is composed of a nutrient extract, phosphate and nitrate. Incubation of the Enteromorpha intestinalis takes place in a light thermostat at 18° C. under a 14 hours light/10 hours dark cycle.
The algae grown in this manner are exposed for a short time (4 hours), in sea water, to the products to be investigated. The minimum killing concentration (MKC) is determined by removing the algae from the sea water containing a certain amount of algicide at the end of the period of action, washing them and investigating them for growth or destruction after renewed incubation in fresh sea water for 6 to 8 weeks.
The minimum killing concentration (MKC) is the amount of substance required to harm the alga within a certain period of time to the extent that it can no longer recover in fresh sea water and dies off.
To determine the inhibitory concentration (MIC), the alga is kept in sea water containing biocide throughout the entire duration of the experiment (concentration tested: 0.1 and 0.5 mg/liter).

[19] = system: Artemia salina; assay: Action against Artemia salina; assay type: in vivo; parameters: key: 0: nauplii not affected; 1: slight change; 1-2: nauplii affected; 2: nauplii severely affected; 2-3: almost all nauplii dead; 3: all nauplii dead
Excerpt: Determination of the action against Artemia salina
The commercially available eggs are caused to hatch under powerful aeration. […]

## CCCCCCCCCCCCCC[P+](CCCC)(CCCC)CCCC.[Cl][Sn-]([Cl])([CH]1CCCCC1)([CH]1CCCCC1)[CH]1CCCCC1 [Example 18, tri-n-bytyl-n-tetradecyl-phosphonium tricyclohexyldichlorostannate]
[1]
  disease (scab) attack (inhibited to less than): less than 10%

## CCCCCCCCCCCCCC[P+](CCCC)(CCCC)CCCC.[CH3][Sn-]([CH3])([Cl])([Cl])[Cl] [Example 20]
[2]
  MIC: 100 µg/mL
[3]
  MIC: 100 µg/mL
[4]
  MIC: 100 µg/mL
[5]
  MIC: 100 µg/mL
[6]
  MIC: 100 µg/mL
[7]
  MIC: 100 µg/mL
[8]
  MIC against fungi: 50 µg/mL
[9]
  MIC against fungi: 50 µg/mL
[10]
  MIC against fungi: 10 µg/mL
[11]
  MIC against fungi: 50 µg/mL
[12]
  MIC against fungi: 10 µg/mL
[13]
  MIC against fungi: 10 µg/mL
[14]
  MIC against fungi: 10 µg/mL
[15]
  MIC against fungi: 10 µg/mL
[16]
  MIC against fungi: 10 µg/mL
[17]; 6 hours exposure (algae-destruction action)
  Growth on the agar: 2
[17]; 14 days (inhibition of growth)
  Growth in the medium: 1
[18]; 5 mg/liter, 4 hours exposure in sea water, re-incubation 6 to 8 weeks
  Destruction 5 mg/liter: yes
[18]; kept in sea water containing biocide throughout, tested 0.1 and 0.5 mg/liter
  MIC: > 0.5 µg/mL
[19]; 0.25 mg/liter, 6 hours
  Action against Artemia salina: 0
[19]; 0.25 mg/liter, 24 hours
  Action against Artemia salina: 1-2
[19]; 0.25 mg/liter, 48 hours
  Action against Artemia salina: 2-3
[19]; 0.5 mg/liter, 6 hours
  Action against Artemia salina: 1
[19]; 0.5 mg/liter, 24 hours
  Action against Artemia salina: 2
[19]; 0.5 mg/liter, 48 hours
  Action against Artemia salina: 3
[19]; 1 mg/liter, 6 hours
  Action against Artemia salina: 2
[19]; 1 mg/liter, 24 hours
  Action against Artemia salina: 2-3
[19]; 1 mg/liter, 48 hours
  Action against Artemia salina: 3
[19]; 2.5 mg/liter, 6 hours
  Action against Artemia salina: 1-2
[19]; 2.5 mg/liter, 24 hours
  Action against Artemia salina: 3
[19]; 2.5 mg/liter, 48 hours
  Action against Artemia salina: 3
